The values that follow come from patent US20250066282A1, “NOVEL ANALOGS OF VALPROIC ACID AND METHODS OF MEDICAL TREATMENT USING THE SAME” (Cereno Scientific AB, priority 2021, published 2025).

The structures appear in SMILES notation.

The subject of series [1] is C57BL/6 wild type mice. Briefly: Excessive bleeding assay (tail bleeding time). To be noted: tail resection 5 mm, 100 mg/kg IP once a day for five days, compared to control (FIG. 1). The format is in vivo. The procedure:
To determine the risks of excessive bleeding associated with the compounds of the present invention, the last 5 mm of the tail of mice was resected to identify the amount of time necessary for the vessel to properly clot and prevent excessive loss of blood.
10-12 weeks old C57BL/6 wild type mice were purchased from Jackson Laboratories for these experiments. Various compounds were administered to the mice via IP injection once a day at a dose of 100 mg/kg of compound for five days prior to resection.
Mice were sedated with 250 μL of ketamine solution (Ketamine (100 μL)/xylazine (50 μL) in 850 μl. Saline solution). The mice were then placed face down on a heat pad on top of the bead bath to enable the tail to be pulled into a saline-filled tube. 5 mm of the tail as cut with a scalpel and the tail was placed in a saline-filled tube and a timer started. The timer was stopped when the bleeding stopped, but the possibility of re-bleeds was observed from 10 minutes after initial bleeding stopped. If the mouse bleeds continuously for 10 minutes, the experiment was halted and the mouse was euthanized. One-way ANOVA with Dunnett's correction for multiple comparison test was performed to determine statistical significance of bleeding times.

The subject of series [2] is C57BL/6 wild type mice. Briefly: Cremaster laser-induced thrombosis assay (platelet accumulation, fibrin formation). The format is in vivo. To be noted: cremaster arteriole laser-induced injury. The procedure: The effects of the compounds of the invention and VPA on the ability and timing of clot formation were determined. Specifically, platelet accumulation and fibrin formation in the cremaster artery in forming a non-occlusive clot were measured following laser-induced insult to the vessel in 10-12 week-old mice (C57BL/6 wild type mice purchased from Jackson Laboratories).
Valproic acid (VPA) was purchased from Sigma-Aldrich as a powder and resuspended in 0.9% Sodium Chloride (saline) to prepare a final stock solution of each compound.
To assess platelet accumulation and fibrin formation, a Zeiss Axio Examiner Z1 fluorescent multichannel intravital microscope was used. The microscope was equipped with: (1) a solid laser launch system (LaserStack; Ablate! Photoablation system, intelligent Imaging innovations), (2) a high-speed sCMOS camera, and (3) a laser ablation system (intelligent Imaging innovations, Denver, CO, USA). SlideBook 6.0 digital microscopy software for image recording and analysis was also used. An anti-platelet antibody, and an anti-fibrin antibody, both commercially available, were used for imaging purposes.
The dynamic accumulation of platelets and fibrin within thrombi at the site of the injury in vivo was evaluated in cremaster arteriole in response to laser-induced injury under intravital microscopy. Adult male mice (10-12 weeks old) were treated with 30 mg/kg and 100 mg/kg for 5 days prior to injury were anesthetized by an intraperitoneal injection of ketamine/xylazine (100 and 10 mg/kg, respectively) and the jugular vein was cannulated. A tracheal tube was inserted to facilitate breathing. The cremaster arteriole was surgically prepared and superfused with preheated bicarbonate saline buffer throughout the experiment.
DyLight 488-conjugated rat anti-mouse platelet GP1bβ antibody (0.1 μg/g; EMFRET Analytics) and Alexa Fluor 647-conjugated anti-fibrin (0.3 μg/g) were administered intravenously via a jugular vein cannula prior to vascular injury. Microcirculation was monitored and recorded under multichannel intravital microscopy.
Multiple independent thrombi (6-8 thrombi in each mouse) were induced in the arterioles (30-50 μm diameter) in each mouse by a laser ablation system. Images of thrombus formation at the site of injured arterioles were acquired in realtime under 63× water-immersion objective with a Zeiss Axio Examiner Z1 fluorescent microscope equipped with solid laser launch system (LaserStack; Intelligent Imaging Innovations) and high-speed sCMOS camera. All captured images were analyzed for the change of fluorescent intensity over the course of thrombus formation after subtracting fluorescent background using the Slidebook program. […]

For series [3] the following is noted: reported by Rettie, J. Biol. Chem. 263(27):13733-13738 (1988); cited from earlier work.
Setting [4] is: 100 mg/kg IP for 5 days, versus VPA (FIG. 4).

For the compound `CCCC(CCC)C(=O)O` [VPA, Valproic acid], the bleeding time result in the series with C57BL/6 wild type mice [1] is recorded as “significant increase in bleeding time”.
As for `[2H]C([2H])C([2H])([2H])CC(CC([2H])([2H])C([2H])[2H])C(=O)O` [Compound Ia, 2-[(2,2,3,3-2H4)propyl](4,4,5,5-2H4)pentanoic acid], the bleeding time result in the series with C57BL/6 wild type mice [1] is reported as “best safety profile in terms of risk of excess bleeding”. In addition, the platelet accumulation result in the series with C57BL/6 wild type mice [2] (30 mg/kg IP for 5 days, versus VPA (FIG. 2)) is “consistent decrease”; in the series with C57BL/6 wild type mice [2] (setting [4]), “consistent decrease in platelet accumulation over VPA”. For the same compound, in the series on C57BL/6 wild type mice [2] (30 mg/kg IP for 5 days, versus VPA (FIG. 3)), the fibrin formation result is “consistent decrease”.
With `[2H]C([2H])C([2H])([2H])CC([2H])(CC([2H])([2H])C([2H])[2H])C(=O)O` [Compound Ib, 2-(Propyl-2,2,3,3-d4)pentanoic-2,4,4,5,5-d5 acid], the platelet accumulation entry in the series on C57BL/6 wild type mice [2] (setting [4]) was “consistent decrease in platelet accumulation over VPA”.
For the compound `[2H]C([2H])(C)CC(CC([2H])([2H])C)C(=O)O` [4,4,4′,4′-D4VPA], in series [3], the “formation of the 4-ene-VPA metabolite compared to VPA” value was “considerably less formation of the 4-ene metabolite”.
As to `[2H]C([2H])([2H])CCC(CCC([2H])([2H])[2H])C(=O)O` [5,5,5,5′,5′,5′D6VPA], the “formation of the 4-ene-VPA metabolite compared to VPA” value in series [3] is reported as “increased amount of the 4-ene-VPA metabolite”.
